The structures appear in SMILES notation. Converted amounts (≈) assume the structure as drawn. The source made the active and inactive calls. No cut-off for these calls is given here.

Experimental findings from ChEMBL document CHEMBL1147140, “Strongylophorine-26, an inhibitor of cancer cell Invasion: SAR revealed by synthesis of analogues” (J Nat Prod, 2007) are described below.

In experiment [1] the test system is MDA-MB-231. Put plainly: Cytotoxicity against human MDA-MB-231 cells. Format: cell-based.
The subject of experiment [2] is MDA-MB-231. Put plainly: Anti-invasive activity against human MDA-MB-231 cells at <= 0.3 ug/ml. The format is functional, cell-based.

In the case of `COC1=CC(=O)C=C(C[C@H]2[C@]3(C)CC[C@H]4C(C)(C)CCC[C@]4(C)[C@H]3CC[C@]2(C)O)C1=O` (stereo in doubt; (+)-3) [listing 1 of 2 here], in the experiment with MDA-MB-231 [1] (mda-mb-231), the IC50 (in general, the concentration needed to halve the response being measured) came to 0.3 µg/mL (≈ 0.7 µM).

`COC1=CC(=O)C=C(C[C@H]2[C@]3(C)CC[C@H]4C(C)(C)CCC[C@]4(C)[C@H]3CC[C@]2(C)O)C1=O` (stereo in doubt; (+)-3) [listing 2 of 2 here]: the outcome with MDA-MB-231 [2] was inactive. Turning to `COC1=CC(=O)C=C(C[C@H]2[C@]3(C)CC[C@H]4C(C)(C)CCC[C@]4(C)[C@H]3CC[C@]2(C)O)C1=O` (stereo in doubt; (-)-3) [listing 1 of 2 here], the IC50 in the experiment on MDA-MB-231 [1] (Homo sapiens, MDA-MB-231, read-out: IC50) was found to be 0.3 µg/mL (≈ 0.7 µM).

As to `COC1=CC(=O)C=C(C[C@H]2[C@]3(C)CC[C@H]4C(C)(C)CCC[C@]4(C)[C@H]3CC[C@]2(C)O)C1=O` (stereo in doubt; (-)-3) [listing 2 of 2 here], in the experiment on MDA-MB-231 [2], the result was inactive.
